Measurements as given in ChEMBL document CHEMBL4152379, “Discovery of Pyrrolidine Sulfonamides as Selective and Orally Bioavailable Antagonists of Transient Receptor Potential Vanilloid-4 (TRPV4)” (J Med Chem, 2018).

Tests used:
[1] = target: T1, Short transient receptor potential channel 5 (Homo sapiens, UniProt Q9UL62); assay: Inhibition of TRPC5 (unknown origin)
T1 sequence (Q9UL62 whole entry): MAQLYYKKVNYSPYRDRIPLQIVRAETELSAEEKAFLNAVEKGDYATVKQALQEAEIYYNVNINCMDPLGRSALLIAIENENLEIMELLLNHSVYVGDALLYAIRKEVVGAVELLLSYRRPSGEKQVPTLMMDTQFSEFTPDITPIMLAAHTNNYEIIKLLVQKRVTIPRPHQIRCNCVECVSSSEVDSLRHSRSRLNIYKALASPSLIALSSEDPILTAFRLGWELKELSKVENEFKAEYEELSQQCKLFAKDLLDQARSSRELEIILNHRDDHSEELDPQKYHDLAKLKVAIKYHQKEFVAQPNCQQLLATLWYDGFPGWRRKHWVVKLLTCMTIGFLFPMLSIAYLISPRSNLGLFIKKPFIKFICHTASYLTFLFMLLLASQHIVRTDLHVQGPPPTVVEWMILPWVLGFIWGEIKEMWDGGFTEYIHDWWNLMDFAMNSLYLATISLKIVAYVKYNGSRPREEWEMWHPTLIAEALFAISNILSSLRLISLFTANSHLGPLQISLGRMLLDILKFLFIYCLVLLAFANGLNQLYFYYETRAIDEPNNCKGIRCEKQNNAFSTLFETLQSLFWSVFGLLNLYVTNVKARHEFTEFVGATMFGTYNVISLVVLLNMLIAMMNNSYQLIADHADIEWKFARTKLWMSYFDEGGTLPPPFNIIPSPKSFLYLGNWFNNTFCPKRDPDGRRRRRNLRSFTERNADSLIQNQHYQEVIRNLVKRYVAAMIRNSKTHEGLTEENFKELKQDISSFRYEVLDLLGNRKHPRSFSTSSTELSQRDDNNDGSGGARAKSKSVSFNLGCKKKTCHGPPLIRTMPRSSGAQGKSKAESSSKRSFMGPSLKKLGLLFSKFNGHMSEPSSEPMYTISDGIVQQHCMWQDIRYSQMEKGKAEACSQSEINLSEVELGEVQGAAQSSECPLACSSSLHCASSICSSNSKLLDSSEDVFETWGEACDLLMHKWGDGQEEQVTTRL

[2] = target: Transient receptor potential cation channel subfamily M member 2 (Homo sapiens, UniProt O94759); assay: Inhibition of TRPM2 (unknown origin)
Chain of Transient receptor potential cation channel subfamily M member 2 (O94759 whole entry): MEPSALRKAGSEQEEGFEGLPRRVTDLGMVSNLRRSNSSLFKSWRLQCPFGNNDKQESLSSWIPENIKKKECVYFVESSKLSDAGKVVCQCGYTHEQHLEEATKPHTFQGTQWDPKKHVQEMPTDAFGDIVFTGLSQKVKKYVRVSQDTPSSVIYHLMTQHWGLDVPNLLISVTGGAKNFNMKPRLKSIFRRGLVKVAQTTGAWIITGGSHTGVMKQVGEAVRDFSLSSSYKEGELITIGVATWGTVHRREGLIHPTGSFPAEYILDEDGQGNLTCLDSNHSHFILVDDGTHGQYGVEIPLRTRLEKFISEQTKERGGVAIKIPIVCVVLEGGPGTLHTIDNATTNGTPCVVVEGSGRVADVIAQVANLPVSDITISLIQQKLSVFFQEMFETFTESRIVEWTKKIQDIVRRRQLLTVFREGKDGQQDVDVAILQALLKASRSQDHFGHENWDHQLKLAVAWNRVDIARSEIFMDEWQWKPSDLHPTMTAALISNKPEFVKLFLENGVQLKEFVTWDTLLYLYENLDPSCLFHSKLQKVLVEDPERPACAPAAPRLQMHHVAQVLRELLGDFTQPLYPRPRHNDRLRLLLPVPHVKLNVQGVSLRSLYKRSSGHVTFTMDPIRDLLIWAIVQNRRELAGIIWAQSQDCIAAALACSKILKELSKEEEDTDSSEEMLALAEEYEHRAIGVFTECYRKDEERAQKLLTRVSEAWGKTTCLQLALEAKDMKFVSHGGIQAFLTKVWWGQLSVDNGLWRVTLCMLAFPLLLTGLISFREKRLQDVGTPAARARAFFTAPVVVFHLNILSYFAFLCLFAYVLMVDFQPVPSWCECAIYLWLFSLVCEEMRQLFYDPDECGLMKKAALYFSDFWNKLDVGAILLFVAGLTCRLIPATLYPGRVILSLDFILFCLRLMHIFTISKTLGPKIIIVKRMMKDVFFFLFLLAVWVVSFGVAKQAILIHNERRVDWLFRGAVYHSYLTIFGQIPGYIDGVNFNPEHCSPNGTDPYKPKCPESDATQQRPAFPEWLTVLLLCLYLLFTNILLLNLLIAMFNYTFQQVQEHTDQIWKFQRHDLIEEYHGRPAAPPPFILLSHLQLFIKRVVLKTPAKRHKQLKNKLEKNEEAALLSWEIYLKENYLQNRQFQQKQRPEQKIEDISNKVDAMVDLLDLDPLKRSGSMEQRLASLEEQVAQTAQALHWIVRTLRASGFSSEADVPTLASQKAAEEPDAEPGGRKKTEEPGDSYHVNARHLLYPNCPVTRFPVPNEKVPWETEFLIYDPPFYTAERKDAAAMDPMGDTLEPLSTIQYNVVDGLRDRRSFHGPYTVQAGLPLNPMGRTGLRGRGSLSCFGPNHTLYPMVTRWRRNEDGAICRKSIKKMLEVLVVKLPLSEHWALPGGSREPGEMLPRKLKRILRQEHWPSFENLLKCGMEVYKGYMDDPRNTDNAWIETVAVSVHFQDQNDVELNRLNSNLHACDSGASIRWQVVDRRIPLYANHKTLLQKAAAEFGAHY

[3] = target: T2, Short transient receptor potential channel 3 (Homo sapiens, UniProt Q13507); assay: Inhibition of TRPC3 (unknown origin)
T2 sequence (Q13507 whole entry): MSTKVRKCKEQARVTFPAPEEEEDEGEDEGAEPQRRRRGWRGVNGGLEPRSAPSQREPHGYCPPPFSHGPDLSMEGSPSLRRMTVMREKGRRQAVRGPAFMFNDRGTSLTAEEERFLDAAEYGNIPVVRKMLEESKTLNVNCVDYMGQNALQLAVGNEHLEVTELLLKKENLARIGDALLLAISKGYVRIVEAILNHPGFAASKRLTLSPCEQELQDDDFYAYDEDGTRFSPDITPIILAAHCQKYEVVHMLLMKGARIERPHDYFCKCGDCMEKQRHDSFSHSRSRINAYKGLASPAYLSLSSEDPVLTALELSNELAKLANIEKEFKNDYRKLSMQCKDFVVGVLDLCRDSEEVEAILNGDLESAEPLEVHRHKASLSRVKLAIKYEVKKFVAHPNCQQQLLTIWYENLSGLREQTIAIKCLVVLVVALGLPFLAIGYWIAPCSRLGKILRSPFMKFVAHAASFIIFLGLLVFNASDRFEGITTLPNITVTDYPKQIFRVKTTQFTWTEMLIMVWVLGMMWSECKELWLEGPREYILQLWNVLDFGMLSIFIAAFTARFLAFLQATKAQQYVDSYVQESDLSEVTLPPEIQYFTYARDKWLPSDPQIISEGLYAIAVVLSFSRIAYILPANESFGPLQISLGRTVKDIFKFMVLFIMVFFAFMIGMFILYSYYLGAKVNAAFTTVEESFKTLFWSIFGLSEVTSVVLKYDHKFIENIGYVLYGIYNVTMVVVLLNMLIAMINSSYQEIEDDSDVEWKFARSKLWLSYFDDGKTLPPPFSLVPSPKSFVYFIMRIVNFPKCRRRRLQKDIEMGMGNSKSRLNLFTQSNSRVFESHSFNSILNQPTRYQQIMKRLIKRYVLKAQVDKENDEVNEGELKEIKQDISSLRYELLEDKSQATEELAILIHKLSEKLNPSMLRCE

[4] = target: T3, Short transient receptor potential channel 4 (Homo sapiens, UniProt Q9UBN4); assay: Inhibition of TRPC4 (unknown origin)
T3 sequence (Q9UBN4 whole entry): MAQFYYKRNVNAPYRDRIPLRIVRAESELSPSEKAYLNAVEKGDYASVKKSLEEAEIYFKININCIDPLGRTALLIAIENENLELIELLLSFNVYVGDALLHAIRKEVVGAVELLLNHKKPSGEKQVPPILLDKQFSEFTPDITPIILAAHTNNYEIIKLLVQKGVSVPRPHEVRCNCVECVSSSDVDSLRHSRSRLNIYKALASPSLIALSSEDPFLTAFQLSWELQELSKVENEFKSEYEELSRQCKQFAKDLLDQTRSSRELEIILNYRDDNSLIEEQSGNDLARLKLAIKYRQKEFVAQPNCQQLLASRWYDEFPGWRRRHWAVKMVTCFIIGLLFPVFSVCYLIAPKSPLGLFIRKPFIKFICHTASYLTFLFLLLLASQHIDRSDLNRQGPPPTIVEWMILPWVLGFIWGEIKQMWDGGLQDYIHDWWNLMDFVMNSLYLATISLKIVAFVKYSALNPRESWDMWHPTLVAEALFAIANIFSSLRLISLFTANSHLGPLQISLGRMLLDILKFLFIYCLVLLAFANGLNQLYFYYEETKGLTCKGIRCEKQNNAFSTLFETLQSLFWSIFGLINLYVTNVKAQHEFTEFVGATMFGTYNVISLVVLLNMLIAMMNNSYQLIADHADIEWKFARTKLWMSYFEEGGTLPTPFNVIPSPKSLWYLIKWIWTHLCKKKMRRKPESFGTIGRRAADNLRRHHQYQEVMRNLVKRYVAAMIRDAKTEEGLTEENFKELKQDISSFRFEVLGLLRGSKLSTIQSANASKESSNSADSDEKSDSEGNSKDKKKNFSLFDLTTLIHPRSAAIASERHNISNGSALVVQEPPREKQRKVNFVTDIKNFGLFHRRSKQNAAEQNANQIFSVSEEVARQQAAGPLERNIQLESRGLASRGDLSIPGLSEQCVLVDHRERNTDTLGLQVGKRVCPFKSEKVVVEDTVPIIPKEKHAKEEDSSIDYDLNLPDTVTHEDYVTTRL

Measured: IC50

N#Cc1ccc(O[C@H]2CN(S(=O)(=O)c3ccc(Cl)cc3Cl)C[C@@]2(O)CO)cc1F
> 10 µM: all assays above
